The results in this text go back to US10428017B2, “Modulators of the cystic fibrosis transmembrane conductance regulator protein and methods of use” (AbbVie S.à.r.l., priority 2017, dated 2019).

Where two headings read alike, the source gives them in different places. Where only a bound is given, the exact number is not on record here.

The assay has as its target T1, F508delCFTR (Homo sapiens, UniProt P13569, DEL508-508).
T1 construct: expressed in transfected cells; host or cells: CFBE4lo-F508delCFTR-HRP cells (human lung derived epithelial cell line, doxycycline-inducible)
Put plainly: Cell Surface Expression-Horse Radish Peroxidase (CSE-HRP) Assay. Type of assay: cell-based. The conditions noted are these: for EC50: CFBE4lo-F508delCFTR-HRP cells, 18-24 hours at 33° C.; for Emax / Maximum % activity (with co-corrector): maximum at any tested concentration (up to 20 μM), normalized to on-plate positive control (2 μM co-corrector); for Maximum % activity (with co-corrector): with co-corrector 2 μM. The method, boiled down:
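Surface F508delCFTR measured via exofacial-loop HRP luminescence (luminol) in doxycycline-induced (0.5 μg/mL, 72 h) CFBE4lo− cells. Compounds, 20 μM top, 3-fold, 8 concentrations, ±2 μM co-corrector, incubated 18-24 h at 33° C; EC50 by variable-slope sigmoidal fit of % activity relative to positive control, three replicate plates.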

[1] abbreviates: test compound without co-corrector, HRP luminescence readout, read-out: EC50 (without co-corrector).
Where [2] appears, read: test compound without co-corrector.
[3] abbreviates: with co-corrector 2 μM 3-[(2R,4R)-4-({[1-(2,2-difluoro-1,3-benzodioxol-5-yl)cyclopropyl]carbonyl}amino)-7-methoxy-3,4-dihydro-2H-chromen-2-yl]benzoic acid, read-out: EC50 (with co-corrector).

T1 sequence (P13569 with tags, fused parts or gaps DEL508-508): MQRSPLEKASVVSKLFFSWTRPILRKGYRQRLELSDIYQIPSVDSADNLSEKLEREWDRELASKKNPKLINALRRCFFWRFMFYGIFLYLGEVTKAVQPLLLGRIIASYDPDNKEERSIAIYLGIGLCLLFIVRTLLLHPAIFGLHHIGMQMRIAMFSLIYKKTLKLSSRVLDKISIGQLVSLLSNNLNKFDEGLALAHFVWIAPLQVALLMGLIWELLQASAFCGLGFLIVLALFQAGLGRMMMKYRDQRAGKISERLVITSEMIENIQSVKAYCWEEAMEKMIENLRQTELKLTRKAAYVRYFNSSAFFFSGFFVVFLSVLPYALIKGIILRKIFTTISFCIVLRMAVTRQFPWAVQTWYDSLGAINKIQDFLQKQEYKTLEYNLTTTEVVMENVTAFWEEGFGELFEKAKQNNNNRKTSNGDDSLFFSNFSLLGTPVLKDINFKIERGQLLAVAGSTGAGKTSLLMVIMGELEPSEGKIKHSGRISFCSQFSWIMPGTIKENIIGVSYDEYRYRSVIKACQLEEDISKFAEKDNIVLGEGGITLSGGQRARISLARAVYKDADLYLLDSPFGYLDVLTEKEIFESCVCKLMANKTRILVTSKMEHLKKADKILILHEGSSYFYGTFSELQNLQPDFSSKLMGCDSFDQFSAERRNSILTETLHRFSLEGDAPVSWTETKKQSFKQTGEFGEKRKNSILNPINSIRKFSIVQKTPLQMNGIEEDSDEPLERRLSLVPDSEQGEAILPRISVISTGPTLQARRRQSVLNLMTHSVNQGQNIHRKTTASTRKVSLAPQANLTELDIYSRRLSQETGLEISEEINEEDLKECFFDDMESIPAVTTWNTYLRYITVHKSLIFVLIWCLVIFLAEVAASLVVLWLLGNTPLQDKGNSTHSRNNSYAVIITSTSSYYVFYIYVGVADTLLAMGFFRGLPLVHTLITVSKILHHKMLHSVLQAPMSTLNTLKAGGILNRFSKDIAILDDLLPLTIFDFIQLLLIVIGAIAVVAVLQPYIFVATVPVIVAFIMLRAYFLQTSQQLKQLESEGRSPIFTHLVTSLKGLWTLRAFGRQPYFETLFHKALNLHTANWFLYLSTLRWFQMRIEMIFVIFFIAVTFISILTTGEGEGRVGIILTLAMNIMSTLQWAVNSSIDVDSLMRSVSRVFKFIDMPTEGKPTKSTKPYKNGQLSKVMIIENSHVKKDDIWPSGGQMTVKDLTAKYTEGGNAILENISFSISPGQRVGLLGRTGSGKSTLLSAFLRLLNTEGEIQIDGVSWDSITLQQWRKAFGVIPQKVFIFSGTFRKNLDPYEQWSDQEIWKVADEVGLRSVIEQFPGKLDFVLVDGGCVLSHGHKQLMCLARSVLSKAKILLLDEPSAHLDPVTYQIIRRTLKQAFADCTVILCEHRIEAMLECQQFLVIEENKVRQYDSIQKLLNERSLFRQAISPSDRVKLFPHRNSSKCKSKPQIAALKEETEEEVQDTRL

Take `COc1ccc(Cl)c2c1C(C(=O)NS(=O)(=O)c1cccc3ccccc13)CO2` (stereo not drawn) [Example 63, 7-chloro-4-methoxy-N-(naphthalene-1-sulfonyl)-2,3-dihydro-1-benzofuran-3-carboxamide]: the “Maximum % activity (with co-corrector)” value is recorded as “+++ (≥350)”. For the same compound, the EC50 under setting [1] lay within 3 to 10 µM. The compound also came in with an Emax under setting [2] of at least 150%. Besides, the EC50 under setting [3] is under 3 µM.

Take `COc1ccc(C2CC2)c2c1C(C(=O)NS(=O)(=O)c1cccc3ccccc13)CCO2` (stereo not drawn) [Example 64, 8-cyclopropyl-5-methoxy-N-(naphthalene-1-sulfonyl)-3,4-dihydro-2H-1-benzopyran-4-carboxamide]: the “Maximum % activity (with co-corrector)” value is “+++ (≥350)”. The EC50 under setting [1] fell in the range of 3 to 10 µM. The maximum response (Emax) under setting [2] is at least 150%. For the same compound, the EC50 under setting [3] was under 3 µM.

`COc1ccc(C2CCC2)c2c1[C@@H](C(=O)NS(=O)(=O)c1cccc3ccccc13)CO2` [Example 66, (3R)-7-cyclobutyl-4-methoxy-N-(naphthalene-1-sulfonyl)-2,3-dihydro-1-benzofuran-3-carboxamide]: the “Maximum % activity (with co-corrector)” value was “+++ (≥350)”. Further, under setting [1], the EC50 was under 3 µM. Also, the maximal effect (Emax) under setting [2] was at least 150%. In addition, the EC50 under setting [3] is under 3 µM.

Consider `COc1ccc(Br)c2c1[C@@H](C(=O)NS(=O)(=O)c1cccc3cnn(C)c13)CCO2` [Example 69, (4S)-8-bromo-5-methoxy-N-(1-methyl-1H-indazole-7-sulfonyl)-3,4-dihydro-2H-1-benzopyran-4-carboxamide], for which the “Maximum % activity (with co-corrector)” value was “++ (≥150 and <350)”. Further, the concentration giving a half-maximal response (EC50) under setting [1] lay in the range of 3 to 10 µM. The Emax under setting [2] lay in the range of 50 to 150%. Moreover, the EC50 under setting [3] lay within 3 to 10 µM.

With `COc1ccc(Br)c2c1[C@H](C(=O)NS(=O)(=O)c1cccc3cnn(C)c13)CCO2` [Example 70, (4R)-8-bromo-5-methoxy-N-(1-methyl-1H-indazole-7-sulfonyl)-3,4-dihydro-2H-1-benzopyran-4-carboxamide], the “Maximum % activity (with co-corrector)” value was “+++ (≥350)”. Moreover, the EC50 under setting [1] is under 3 µM. The compound also had a maximal effect (Emax) under setting [2] of at least 150%. In addition, the EC50 under setting [3] was under 3 µM.

Take `COc1ccc(Br)c2c1[C@@H](C(=O)NS(=O)(=O)c1cccc3ncccc13)CC(C)(C)O2` [Example 71, (4S)-8-bromo-5-methoxy-2,2-dimethyl-N-(quinoline-5-sulfonyl)-3,4-dihydro-2H-1-benzopyran-4-carboxamide]: the “Maximum % activity (with co-corrector)” value is reported as “+++ (≥350)”. Further, under setting [1], the EC50 was 3 to 10 µM. In addition, the Emax under setting [2] was at least 150%. Under setting [3], the EC50 is under 3 µM.

As to `COc1ccc(Br)c2c1[C@H](C(=O)NS(=O)(=O)c1cccc3ncccc13)CC(C)(C)O2` [Example 72, (4R)-8-bromo-5-methoxy-2,2-dimethyl-N-(quinoline-5-sulfonyl)-3,4-dihydro-2H-1-benzopyran-4-carboxamide], the “Maximum % activity (with co-corrector)” value is reported as “+++ (≥350)”. Under setting [1], the EC50 was under 3 µM. The Emax under setting [2] was at least 150%. The EC50 under setting [3] was under 3 µM.

For the compound `COc1ccc(C2CCC2)c2c1[C@@H](C(=O)NS(=O)(=O)c1cccc3nc(C)ccc13)CCO2` [Example 76, (4S)-8-cyclobutyl-5-methoxy-N-(2-methylquinoline-5-sulfonyl)-3,4-dihydro-2H-1-benzopyran-4-carboxamide], the “Maximum % activity (with co-corrector)” value is listed as “+++ (≥350)”. For the same compound, the EC50 under setting [1] is 3 to 10 µM. Besides, the Emax under setting [2] is at least 150%. In addition, the EC50 under setting [3] was in the range of 3 to 10 µM.

On to `COc1ccc(C2CCC2)c2c1[C@H](C(=O)NS(=O)(=O)c1cccc3nc(C)ccc13)CCO2` [Example 77, (4R)-8-cyclobutyl-5-methoxy-N-(2-methylquinoline-5-sulfonyl)-3,4-dihydro-2H-1-benzopyran-4-carboxamide], for which the “Maximum % activity (with co-corrector)” value was “+++ (≥350)”. Also, the EC50 under setting [1] was 3 to 10 µM. Under setting [2], this compound came in with an Emax of at least 150%. For the same compound, the EC50 under setting [3] is under 3 µM.

With `COc1ccc(Br)c2c1C(C(=O)NS(=O)(=O)c1cccc3ccccc13)OCC2` (stereo not drawn) [Example 78, 5-bromo-8-methoxy-N-(naphthalene-1-sulfonyl)-3,4-dihydro-1H-2-benzopyran-1-carboxamide], the “Maximum % activity (with co-corrector)” value is “+++ (≥350)”. The EC50 under setting [1] is under 3 µM. This compound also registered an Emax under setting [2] of at least 150%. Also, the EC50 under setting [3] was under 3 µM.

`COc1ccc(C2CCC2)c2c1C(C(=O)NS(=O)(=O)c1cccc3ccccc13)OCC2` (stereo not drawn) [Example 79, 5-cyclobutyl-8-methoxy-N-(naphthalene-1-sulfonyl)-3,4-dihydro-1H-2-benzopyran-1-carboxamide]: the “Maximum % activity (with co-corrector)” value is “+++ (≥350)”. Moreover, the EC50 under setting [1] lay within 3 to 10 µM. The Emax under setting [2] is at least 150%. For the same compound, the EC50 under setting [3] is under 3 µM.

Turning to `COc1ccc(C2CCC2)c2c1C(C(=O)NS(=O)(=O)c1cccc3ncccc13)CO2` (stereo not drawn) [Example 80, 7-cyclobutyl-4-methoxy-N-(quinoline-5-sulfonyl)-2,3-dihydro-1-benzofuran-3-carboxamide], the “Maximum % activity (with co-corrector)” value is “+++ (≥350)”. Further, under setting [1], the EC50 was under 3 µM. This compound yielded an Emax under setting [2] of at least 150%. Besides, under setting [3], the EC50 was under 3 µM.

With `COc1ccc(C2CCC2)c2c1C(C(=O)NS(=O)(=O)c1cccc3ncccc13)OCC2` (stereo not drawn) [Example 81, 5-cyclobutyl-8-methoxy-N-(quinoline-5-sulfonyl)-3,4-dihydro-1H-2-benzopyran-1-carboxamide], the “Maximum % activity (with co-corrector)” value is given as “+++ (≥350)”. In addition, under setting [1], the EC50 is 3 to 10 µM. In addition, the Emax under setting [2] is at least 150%. In addition, the EC50 under setting [3] was under 3 µM.

On to `COc1ccc(C2CCC2)c2c1C(C(=O)NS(=O)(=O)c1cccc3c1CCCN3)CCO2` (stereo not drawn) [Example 85, 8-cyclobutyl-5-methoxy-N-(1,2,3,4-tetrahydroquinoline-5-sulfonyl)-3,4-dihydro-2H-1-benzopyran-4-carboxamide], for which the “Maximum % activity (with co-corrector)” value is recorded as “+++ (≥350)”. The half-maximal effective concentration (EC50) under setting [1] was under 3 µM. This compound registered an Emax under setting [2] of at least 150%. In addition, the EC50 under setting [3] was under 3 µM.

Regarding `COc1ccc(C2CCC2)c2c1[C@H](C(=O)NS(=O)(=O)c1cccc3ncccc13)CC(C)(C)O2` [Example 86, (4R)-8-cyclobutyl-5-methoxy-2,2-dimethyl-N-(quinoline-5-sulfonyl)-3,4-dihydro-2H-1-benzopyran-4-carboxamide], the “Maximum % activity (with co-corrector)” value is “+++ (≥350)”. Moreover, the EC50 under setting [1] was under 3 µM. Besides, the Emax under setting [2] was at least 150%. In addition, the 50% effective concentration (EC50) under setting [3] is under 3 µM.

Regarding `COc1ccc(C2CCC2)c2c1C(C(=O)NS(=O)(=O)c1cccc3ncn(C)c13)CO2` (stereo not drawn) [Example 87, 7-cyclobutyl-4-methoxy-N-(1-methyl-1H-benzimidazole-7-sulfonyl)-2,3-dihydro-1-benzofuran-3-carboxamide], the “Maximum % activity (with co-corrector)” value was “+++ (≥350)”. The EC50 under setting [1] was under 3 µM. The maximal effect (Emax) under setting [2] is at least 150%. The EC50 under setting [3] is under 3 µM.

Consider `COc1ccc(C2CCC2)c2c1C(C(=O)NS(=O)(=O)c1cccn3nccc13)CO2` (stereo not drawn) [Example 88, 7-cyclobutyl-4-methoxy-N-(pyrazolo[1,5-a]pyridine-4-sulfonyl)-2,3-dihydro-1-benzofuran-3-carboxamide], for which the “Maximum % activity (with co-corrector)” value is on record as “+++ (≥350)”. Under setting [1], the EC50 is 3 to 10 µM. The Emax under setting [2] is at least 150%. Moreover, the EC50 under setting [3] was under 3 µM.

Consider `COc1ccc(C2CCC2)c2c1C(C(=O)NS(=O)(=O)c1cccc3c1NCCC3)CO2` (stereo not drawn) [Example 90, 7-cyclobutyl-4-methoxy-N-(1,2,3,4-tetrahydroquinoline-8-sulfonyl)-2,3-dihydro-1-benzofuran-3-carboxamide], for which the “Maximum % activity (with co-corrector)” value is “+++ (≥350)”. Moreover, under setting [1], the EC50 fell in the range of 3 to 10 µM. Besides, the Emax under setting [2] was at least 150%. In addition, under setting [3], the EC50 is under 3 µM.

Take `COc1ccc(C2CCC2)c2c1[C@@H](C(=O)NS(=O)(=O)c1cccc3c1CCCN3)CCO2` [Example 91, (4S)-8-cyclobutyl-5-methoxy-N-(1,2,3,4-tetrahydroquinoline-5-sulfonyl)-3,4-dihydro-2H-1-benzopyran-4-carboxamide]: the “Maximum % activity (with co-corrector)” value is “+++ (≥350)”. The EC50 under setting [1] was 3 to 10 µM. The Emax under setting [2] is at least 150%. Besides, under setting [3], the EC50 fell in the range of 3 to 10 µM.

As for `COc1ccc(C2CCC2)c2c1[C@H](C(=O)NS(=O)(=O)c1cccc3c1CCCN3)CCO2` [Example 92, (4R)-8-cyclobutyl-5-methoxy-N-(1,2,3,4-tetrahydroquinoline-5-sulfonyl)-3,4-dihydro-2H-1-benzopyran-4-carboxamide], the “Maximum % activity (with co-corrector)” value was “+++ (≥350)”. The EC50 under setting [1] is under 3 µM. Besides, under setting [2], the Emax is at least 150%. For the same compound, the EC50 under setting [3] is under 3 µM.

Consider `COc1ccc(C2CCC2)c2c1C(C(=O)NS(=O)(=O)c1cccc3c1CCCN3)CC(C)(C)O2` (stereo not drawn) [Example 93, 8-cyclobutyl-5-methoxy-2,2-dimethyl-N-(1,2,3,4-tetrahydroquinoline-5-sulfonyl)-3,4-dihydro-2H-1-benzopyran-4-carboxamide], for which the “Maximum % activity (with co-corrector)” value was “+++ (≥350)”. For the same compound, the EC50 under setting [1] is under 3 µM. Under setting [2], this compound gave an Emax of at least 150%. For the same compound, the EC50 under setting [3] was under 3 µM.

What is called EC50 is the concentration giving half of the maximal effect. Usually Emax stands for the greatest response seen or fitted, relative to the assay's reference.
